Results published in publication PMC12013712, “The protein kinases KIPK and KIPK-LIKE1 suppress overbending during negative hypocotyl gravitropic growth in Arabidopsis” (The Plant Cell, 2025).

Columns and labels:
KIPKL1 = target: T1, KIPKL1 (Arabidopsis thaliana, UniProt Q9SJM3); assay: in vitro phosphorylation of GST-PIN3CL, autoradiography; assay type: biochemical; conditions: MBP fusion; 100 µM ATP with [γ-32P]ATP, labelled compound; 5 mM MgCl2, pH 7.5, 30 °C, 1 h
T1 construct: gene KIPK2; GST fusion (PIP strips) or MBP fusion (phosphorylation), tags kept, from E. coli Rosetta (DE3)
T1 sequence (Q9SJM3 1-949): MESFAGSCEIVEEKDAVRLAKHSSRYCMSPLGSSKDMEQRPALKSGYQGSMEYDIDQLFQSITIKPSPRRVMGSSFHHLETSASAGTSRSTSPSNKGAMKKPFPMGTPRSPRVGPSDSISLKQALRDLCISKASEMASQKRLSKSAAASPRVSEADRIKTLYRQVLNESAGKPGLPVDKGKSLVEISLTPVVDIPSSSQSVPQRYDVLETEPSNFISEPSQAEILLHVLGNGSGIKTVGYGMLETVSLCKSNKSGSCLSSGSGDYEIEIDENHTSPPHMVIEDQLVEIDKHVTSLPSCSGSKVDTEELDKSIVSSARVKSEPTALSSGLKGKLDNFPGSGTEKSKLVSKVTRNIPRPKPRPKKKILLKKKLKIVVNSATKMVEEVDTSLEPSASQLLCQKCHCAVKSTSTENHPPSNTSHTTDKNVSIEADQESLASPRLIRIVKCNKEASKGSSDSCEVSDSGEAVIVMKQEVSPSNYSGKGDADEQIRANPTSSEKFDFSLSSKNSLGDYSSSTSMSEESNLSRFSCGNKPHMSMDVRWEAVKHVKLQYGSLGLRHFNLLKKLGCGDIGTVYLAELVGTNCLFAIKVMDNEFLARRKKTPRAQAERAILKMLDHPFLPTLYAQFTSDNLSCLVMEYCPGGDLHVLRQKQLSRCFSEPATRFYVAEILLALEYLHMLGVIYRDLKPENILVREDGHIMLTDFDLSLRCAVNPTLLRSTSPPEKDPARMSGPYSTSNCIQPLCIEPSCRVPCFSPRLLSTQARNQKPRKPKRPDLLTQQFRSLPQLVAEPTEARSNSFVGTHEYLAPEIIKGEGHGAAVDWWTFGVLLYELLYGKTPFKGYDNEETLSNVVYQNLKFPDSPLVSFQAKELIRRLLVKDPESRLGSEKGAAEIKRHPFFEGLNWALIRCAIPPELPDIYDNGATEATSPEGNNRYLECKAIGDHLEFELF

KIPK = target: T2, KIPK (Arabidopsis thaliana, UniProt Q9LFA2); assay: as above; assay type: biochemical; conditions: MBP fusion; 100 µM ATP with [γ-32P]ATP, labelled compound; 5 mM MgCl2, pH 7.5, 30 °C, 1 h
T2 construct: gene KIPK1; GST fusion (PIP strips) or MBP fusion (phosphorylation), tags kept, from E. coli Rosetta (DE3)
T2 sequence (Q9LFA2 1-934): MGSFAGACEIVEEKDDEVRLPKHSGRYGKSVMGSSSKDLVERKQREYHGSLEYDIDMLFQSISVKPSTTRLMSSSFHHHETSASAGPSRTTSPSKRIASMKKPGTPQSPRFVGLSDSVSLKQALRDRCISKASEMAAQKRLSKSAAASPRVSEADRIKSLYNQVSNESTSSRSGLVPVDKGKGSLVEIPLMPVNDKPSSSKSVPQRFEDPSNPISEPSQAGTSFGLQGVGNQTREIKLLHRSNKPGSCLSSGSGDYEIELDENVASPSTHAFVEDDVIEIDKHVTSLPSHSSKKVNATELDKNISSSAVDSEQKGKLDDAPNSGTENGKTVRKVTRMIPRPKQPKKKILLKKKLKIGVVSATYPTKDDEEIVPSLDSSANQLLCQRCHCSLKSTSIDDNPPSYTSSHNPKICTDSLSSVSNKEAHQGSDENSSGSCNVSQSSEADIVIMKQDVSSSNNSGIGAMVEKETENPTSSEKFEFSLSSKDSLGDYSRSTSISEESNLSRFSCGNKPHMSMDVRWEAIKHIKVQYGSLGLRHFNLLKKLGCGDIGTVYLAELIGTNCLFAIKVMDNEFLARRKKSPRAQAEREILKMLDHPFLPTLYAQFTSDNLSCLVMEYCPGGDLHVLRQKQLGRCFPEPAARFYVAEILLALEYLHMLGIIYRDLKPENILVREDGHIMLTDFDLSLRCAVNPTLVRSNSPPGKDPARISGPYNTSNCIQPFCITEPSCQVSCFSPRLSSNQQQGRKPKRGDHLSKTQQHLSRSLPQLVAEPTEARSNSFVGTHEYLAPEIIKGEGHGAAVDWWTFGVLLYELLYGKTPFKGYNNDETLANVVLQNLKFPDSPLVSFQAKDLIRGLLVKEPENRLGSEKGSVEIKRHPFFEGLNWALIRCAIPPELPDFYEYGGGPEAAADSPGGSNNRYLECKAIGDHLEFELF

KIPKL2 = target: T3, KIPKL2 (Arabidopsis thaliana, UniProt Q9LZS4); assay: as above; assay type: biochemical; conditions: MBP fusion; 100 µM ATP with [γ-32P]ATP, labelled compound; 5 mM MgCl2, pH 7.5, 30 °C, 1 h
T3 construct: gene AGC1-8; GST fusion (PIP strips) or MBP fusion (phosphorylation), tags kept, from E. coli Rosetta (DE3)
T3 sequence (Q9LZS4 1-926): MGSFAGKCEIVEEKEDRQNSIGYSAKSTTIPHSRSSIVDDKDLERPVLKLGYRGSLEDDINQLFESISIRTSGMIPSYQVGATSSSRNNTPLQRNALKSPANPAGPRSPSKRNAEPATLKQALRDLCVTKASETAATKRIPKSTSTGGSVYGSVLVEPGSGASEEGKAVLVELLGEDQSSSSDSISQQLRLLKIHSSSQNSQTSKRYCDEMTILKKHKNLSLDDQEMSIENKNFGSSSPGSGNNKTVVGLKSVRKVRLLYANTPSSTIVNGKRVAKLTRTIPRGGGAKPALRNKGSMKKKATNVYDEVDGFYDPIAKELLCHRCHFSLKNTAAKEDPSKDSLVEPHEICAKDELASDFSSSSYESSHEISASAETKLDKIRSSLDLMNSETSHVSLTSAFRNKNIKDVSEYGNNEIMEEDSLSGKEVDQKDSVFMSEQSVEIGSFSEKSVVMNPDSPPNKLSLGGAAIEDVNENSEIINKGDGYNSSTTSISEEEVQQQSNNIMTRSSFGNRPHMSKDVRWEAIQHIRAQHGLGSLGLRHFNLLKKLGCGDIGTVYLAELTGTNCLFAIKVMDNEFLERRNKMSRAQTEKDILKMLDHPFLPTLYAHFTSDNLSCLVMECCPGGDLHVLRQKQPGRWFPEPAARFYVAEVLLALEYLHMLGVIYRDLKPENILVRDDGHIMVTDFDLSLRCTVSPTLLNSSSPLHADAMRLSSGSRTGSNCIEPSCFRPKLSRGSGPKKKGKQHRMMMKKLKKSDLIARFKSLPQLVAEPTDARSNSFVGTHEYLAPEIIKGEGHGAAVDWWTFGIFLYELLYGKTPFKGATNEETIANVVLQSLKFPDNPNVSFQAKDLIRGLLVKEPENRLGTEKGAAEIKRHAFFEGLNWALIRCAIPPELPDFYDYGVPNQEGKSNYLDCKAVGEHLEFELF

PIN3 = target: T4, PIN3 (Arabidopsis thaliana, UniProt Q9S7Z8); assay: [3H]-IAA efflux from Xenopus oocytes; assay type: cell-based; conditions: co-expressed with KIPK or KIPKL1; about 1 µM internal [3H]-IAA, labelled compound; outside pH 7.4, 21 °C
T4 sequence (Q9S7Z8 1-640): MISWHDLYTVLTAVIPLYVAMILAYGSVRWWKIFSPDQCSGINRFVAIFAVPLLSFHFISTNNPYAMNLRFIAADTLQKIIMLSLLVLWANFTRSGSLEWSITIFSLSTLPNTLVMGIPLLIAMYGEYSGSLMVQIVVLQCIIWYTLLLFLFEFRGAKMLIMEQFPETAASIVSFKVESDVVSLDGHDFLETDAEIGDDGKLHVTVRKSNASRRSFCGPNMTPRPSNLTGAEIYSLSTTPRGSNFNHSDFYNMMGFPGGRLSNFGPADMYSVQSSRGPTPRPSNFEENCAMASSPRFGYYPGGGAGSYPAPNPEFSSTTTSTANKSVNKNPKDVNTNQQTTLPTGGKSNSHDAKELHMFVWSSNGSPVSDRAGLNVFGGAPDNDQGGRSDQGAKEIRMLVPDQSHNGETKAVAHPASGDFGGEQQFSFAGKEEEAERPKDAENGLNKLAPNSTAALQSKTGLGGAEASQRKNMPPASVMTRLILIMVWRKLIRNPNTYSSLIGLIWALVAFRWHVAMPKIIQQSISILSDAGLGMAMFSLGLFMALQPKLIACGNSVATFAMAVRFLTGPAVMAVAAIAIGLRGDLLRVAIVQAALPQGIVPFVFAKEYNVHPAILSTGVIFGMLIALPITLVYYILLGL

Compound	in vitro phosphorylation of GST-PIN3CL, autoradiography (KIPKL1)	in vitro phosphorylation of GST-PIN3CL, autoradiography (KIPK)	in vitro phosphorylation of GST-PIN3CL, autoradiography (KIPKL2)	[3H]-IAA efflux from Xenopus oocytes (PIN3)
Nc1ncnc2c1ncn2[C@@H]1O[C@H](COP(=O)(O)OP(=O)(O)OP(=O)(O)O)[C@@H](O)[C@H]1O [ATP]	MBP-KIPK and MBP-KIPKL1 phosphorylated the GST- (glutathione-S-transferase-) tagged PIN3 cytoplasmic loop	MBP-KIPK and MBP-KIPKL1 phosphorylated the GST- (glutathione-S-transferase-) tagged PIN3 cytoplasmic loop	GST-PIN3CL phosphorylation by MBP-KIPKL2 was reproducibly comparatively less efficient	–
O=C(O)Cc1c[nH]c2ccccc12 [IAA]	–	–	–	PIN3-mediated auxin efflux was activated when PIN3 was co-expressed with KIPK or KIPKL1
